Assay results taken from patent publication US12637481B2, “Boronic acid derivatives and therapeutic uses thereof” (QPEX BIOPHARMA, INC., priority 2020, dated 2026).
Where two headings read alike, the source gives them in different places.

How the values were obtained:
[1] = Microsomal activation of prodrug, human liver microsomes; assay type: in vitro ADME; details: for half-life at 1 μM: 1 μM in human liver microsomes, room temperature, assayed for active drug by LC/MS/MS
Method: (§1) Serum activation: Compounds 1, 2, or II were solubilized in water and added to rat, dog, monkey, and human serum at a concentration of 50 μg/mL. The samples were incubated at room temperature for 1 hour then assayed for “active” drug content using an LC/MS/MS assay. Microsomal activation: Compounds 1, 2, or II were solubilized in water and added to rat, dog, monkey, and human liver microsomes at a concentration of 1 μM. The samples were incubated at room temperature for 1 hour then assayed for “active” drug content using an LC/MS/MS assay.

[2] = Permeability/transport; assay type: in vitro ADME
[3] = Microsomal activation of prodrug, monkey liver microsomes; assay type: in vitro ADME; details: 1 μM in monkey liver microsomes, room temperature, assayed for active drug by LC/MS/MS; read-out: Half-life monkey micorsomes
Method: as §1

[4] = Serum activation of prodrug, rat serum; assay type: in vitro ADME; details: 50 μg/mL in rat serum, room temperature, 1 hour, assayed for active drug by LC/MS/MS
Method: as §1

[5] = Serum activation of prodrug, monkey serum; assay type: in vitro ADME; details: 50 μg/mL in monkey serum, room temperature, 1 hour, assayed for active drug by LC/MS/MS
Method: as §1

[6] = Microsomal activation of prodrug, dog liver microsomes; assay type: in vitro ADME; details: 1 μM in dog liver microsomes, room temperature, assayed for active drug by LC/MS/MS
Method: as §1

[7] = Serum activation of prodrug, human serum; assay type: in vitro ADME; details: 50 μg/mL in human serum, room temperature, 1 hour, assayed for active drug by LC/MS/MS
Method: as §1

[8] = Serum activation of prodrug, dog serum; assay type: in vitro ADME; details: 50 μg/mL in dog serum, room temperature, 1 hour, assayed for active drug by LC/MS/MS
Method: as §1

[9] = Crystallinity; assay type: physicochemical
[10] = Microsomal activation of prodrug, rat liver microsomes; assay type: in vitro ADME; details: 1 μM in rat liver microsomes, room temperature, assayed for active drug by LC/MS/MS
Method: as §1

[11] = Dynamic vapor sorption (DVS), hygroscopicity; assay type: physicochemical; details: 25° C., 5 to 95% RH
Method: DVS analysis was carried out using a TA Instruments Q5000 Dynamic Vapor Sorption analyzer. The instrument was calibrated with standard weights and a sodium bromide standard for humidity. Approximately 20 mg of sample was loaded into a metal-coated quartz pan for analysis. The sample was analyzed at 25° C. with a maximum equilibration time of one hour in 10% relative humidity (RH) steps from 5 to 95% RH (adsorption cycle) and from 95 to 5% RH (desorption cycle). The movement from one step to the next occurred either after satisfying the equilibrium criterion of 0.01% weight change or, if the equilibrium criterion was not met, after one hour. The percent weight change values were calculated using Microsoft Excel®. The temperature for the DVS analysis can impact the outcome of the results.

Structure (SMILES) | half-life at 1 μM [1] [min] | human microsomal activation, compared in words ([1]; compared with Compound 2 or Compound II) | Permeability/transport [2] | half-life at 1 μM [3] [min] | half-life at 50 μg/mL [4] [min] | half-life at 50 μg/mL [5] [min] | half-life at 1 μM [6] [min] | half-life at 50 μg/mL [7] [min] | half-life at 50 μg/mL [8] [min] | Crystallinity [9] | half-life at 1 μM [10] [min] | Crystallinity ([9]; listed as drawing 11) | Human microsome activation t1/2 ([1]; human liver microsomes, as repeated in Table 2) | Hygroscopicity by dynamic vapor sorption (DVS) [11]
CC(=O)OCOC(=O)c1c(F)ccc2c1OB(O)[C@@H]1C[C@H]21 [Compound 2] | 8 ± 1 |  | High | 3 ± 2 | > 60 | > 60 |  | > 60 | > 60 | not crystalline | 3 ± 2 | No |  | 
CC(C)C(=O)OCOC(=O)c1c(F)ccc2c1O[B-](O)(O)[C@@H]1C[C@H]21.[Na+] [crystalline Form B of Compound II′] |  |  |  |  |  |  |  |  |  |  |  |  |  | moderately hygroscopic

Now from value to compound:

half-life at 1 μM [1] [min] | human microsomal activation, compared in words ([1]; compared with Compound 2 or Compound II) | Permeability/transport [2] | half-life at 1 μM [3] [min] | half-life at 50 μg/mL [4] [min] | half-life at 50 μg/mL [5] [min] | half-life at 1 μM [6] [min] | half-life at 50 μg/mL [7] [min] | half-life at 50 μg/mL [8] [min] | Crystallinity [9] | half-life at 1 μM [10] [min] | Crystallinity ([9]; listed as drawing 11) | Human microsome activation t1/2 ([1]; human liver microsomes, as repeated in Table 2) | Hygroscopicity by dynamic vapor sorption (DVS) [11] | Structure (SMILES)
28 ± 2 | significantly slower | High | 2 ± 1 | > 60 | > 60 | 11 ± 1 | > 60 | > 60 | Yes | 3 ± 1 |  |  |  | CCCC(=O)OCOC(=O)c1c(F)ccc2c1OB(O)[C@@H]1C[C@H]21 [Compound 1]
9 ± 5 |  | High | 2 ± 1 | > 60 | > 60 | 23 ± 2 | > 60 | > 60 | Yes | 5 ± 3 |  | 9 + 5 min |  | CC(C)C(=O)OCOC(=O)c1c(F)ccc2c1OB(O)[C@@H]1C[C@H]21 [Compound II, (isobutyryloxy)methyl (1aR,7bS)-5-fluoro-2-hydroxy-1,1a,2,7b-tetrahydrobenzo[e]cyclopropa[c][1,2]oxaborinine-4-carboxylate]
 |  |  |  |  |  |  |  |  |  |  |  |  | slightly hygroscopic | CC(C)C(=O)OCOC(=O)c1c(F)ccc2c1O[B-](O)(O)[C@@H]1C[C@H]21.[Na+] [crystalline Form A of Compound II′]
